Reference: article PMC11249646, “Small-Molecule Disruptors of the Interaction between Calcium- and Integrin-Binding Protein 1 and Integrin αIIbβ3 as Novel Antiplatelet Agents” (ACS Pharmacology & Translational Science, 2024)
Where two headings read alike, the source gives them in different places.

Assays:
[1] = target: T1, CIB1 and αIIb interaction (CIB1-GST : F-αIIb peptide) (Homo sapiens, UniProt Q99828); assay: FP assay, 1536-well qHTS format (primary and confirmatory screen); assay type: binding
T1 construct: made in house; host or cells: BL-21 plus RIL cells (E. coli)
T1 sequence (Q99828 1-191): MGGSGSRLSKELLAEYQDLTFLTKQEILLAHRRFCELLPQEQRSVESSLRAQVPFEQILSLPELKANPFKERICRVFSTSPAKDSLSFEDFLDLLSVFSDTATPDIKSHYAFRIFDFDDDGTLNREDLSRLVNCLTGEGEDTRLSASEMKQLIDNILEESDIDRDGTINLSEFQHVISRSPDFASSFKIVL

[2] = target: T2, GST-CIB1 : F-scrambled peptide (Homo sapiens, UniProt Q99828); assay: FP scrambled-peptide counter screen, 1536-well format; assay type: binding; conditions: for IC50: read-out: IC50 [μM] (counterscreen)
T2 construct: made in house; host or cells: BL-21 plus RIL cells (E. coli)
T2 sequence (Q99828 1-191): T1 sequence (Q99828 1-191)

[3] = Table S3, confirmatory screen, YES/NO call
[4] = Table S3, confirmatory screen, qHTS curve class, a negative sign marks inhibitory curves
[5] = Table S3, confirmatory screen, negative = inhibition
[6] = Table S3, confirmatory screen, read-out: IC50 [μM] (confirmatory screen)
[7] = qHTS FP screen hits, Table S2, negative = inhibition
[8] = qHTS FP screen hits, Table S2, one class per curve where COUNT > 1, negative sign = inhibitory curve
[9] = qHTS FP screen hits, Table S2, read-out: IC50
[10] = Table S3, counterscreen, qHTS curve class, a negative sign marks inhibitory curves
[11] = Table S3, counterscreen, negative = inhibition
[12] = confirmatory screen, qHTS curve class, negative sign = inhibitory curve
[13] = confirmatory screen, read-out: IC50 [μM] (confirmatory screen)
[14] = counterscreen, qHTS curve class, negative sign = inhibitory curve
[15] = qHTS primary screen hits, Table S2, negative = inhibition
[16] = qHTS primary screen hits, Table S2, negative sign = inhibitory curve, several classes where COUNT > 1
[17] = qHTS primary screen hits, Table S2, read-out: IC50

Compound | Confirm? (confirmatory screen) [1, 3] | Curve Class (confirmatory screen) [1, 4] | Efficacy (%) (confirmatory screen) [1, 5] | Efficacy (%) [1, 7] [%] | Curve Class [1, 8] | IC50 [1, 9] [µM] | Curve Class (counterscreen) [2, 10] | Efficacy (%) (counterscreen) [2, 11] | IC50 ([2]; Table S3, counterscreen) [µM] | Efficacy (%) (confirmatory screen) ([1]; confirmatory screen) | Confirm? (confirmatory screen) ([1]; confirmatory screen, YES/NO) | Curve Class (confirmatory screen) [1, 12] | IC50 [1, 13] [µM] | Efficacy (%) (counterscreen) ([2]; counterscreen) | Curve Class (counterscreen) [2, 14] | IC50 ([2]; counterscreen) [µM] | other results
CC(=O)c1c(O)cc2cccc3c2c1CC(C)(O)O3 (centres unmarked) [NCGC00381142-01] | YES | -2.2 | -84 | -51 | -2.2 | 50.1 | -2.1 | -99 | 39.8 |  |  |  |  |  |  |  | IC50 [1, 6]: 39.8 µM
C=C1C(OC(=O)/C(C)=C\C)[C@@]23CCC4[C@@](C)(CCC[C@@]4(C)C(=O)O)C2CC[C@H]1C3OC(C)=O (some centres unmarked) [NCGC00381205-01] |  |  |  | -30 | -2.2 | 20 |  |  |  | -71 | YES | -2.2 | 31.6 | -31 | -1.4 | 8.9 | 
CC(=O)NC(Cc1c[nH]c2ccccc(=O)c12)C(=O)O (centres unmarked) [NCGC00381382-01] |  |  |  | -50 | -2.2 | 50.1 |  |  |  | -74 | YES | -2.2 | 44.7 | -85 | -2.2 | 89.1 | 
NS(=O)(=O)c1ccc(Cc2c(-c3ccc(F)c(-c4ccc(F)cc4)c3)nn(-c3nc(C(=O)O)cs3)c2C2CC2)cc1F.O=C(O)C(F)(F)F [NCGC00381623-01] |  | 3 | 124 |  |  |  |  | 250 | 79.4 |  |  |  |  |  |  |  | Efficacy (%) [1, 15]: -25%; Curve Class [1, 16]: -2.4; IC50 [1, 17]: 39.8 µM
Cn1cnc(-c2nccc3c(O)nc(OCCCC(F)(F)F)nc23)c1.O=C(O)C(F)(F)F [NCGC00381768-02] |  | 4 | -16 |  |  |  | 4 | -28 |  |  |  |  |  |  |  |  | Efficacy (%) [1, 15]: -25%; Curve Class [1, 16]: -2.4; IC50 [1, 17]: 31.6 µM
COc1ccc2nc3[nH]nc(C)c3c(NCCOCCO)c2c1 [NCGC00384193-04] | YES | -2.2 | -47 | -75 | -2.2 | 50.1 | -2.2 | -75 | 89.1 |  |  |  |  |  |  |  | 
O=C(c1ccccc1)c1c(O)cc(O)cc1O[C@@H]1O[C@H](CO)[C@@H](O)[C@H](O)[C@H]1O [NCGC00384934-01] |  |  |  | -29 | -1.2 | 25.1 |  |  |  |  |  |  |  |  |  |  | CONFIRMATORY SCREEN Efficacy (%) ([1]; confirmatory screen): -21%; CONFIRMATORY SCREEN Curve Class ([1]; confirmatory screen, qHTS curve class): 4; COUNTERSCREEN Efficacy (%) ([2]; counterscreen): -31%; COUNTERSCREEN Curve Class ([2]; counterscreen, qHTS curve class): 4
COc1ccc(CC(NC(C)=O)C(=O)O)cc1 (centres unmarked) [NCGC00384987-01] | YES | -2.2 | -65 | -58 | -2.2 | 56.2 | -2.1 | -105 | 79.4 |  |  |  |  |  |  |  | IC50 [1, 6]: 50.1 µM
OC[C@H]1O[C@@H](Oc2ccc(O)c3cccc(O)c23)[C@H](O)[C@@H](O)[C@@H]1O [NCGC00385147-01] | YES | -1.1 | -85 | -54 | -2.2 | 31.6 | -1.1 | -86 | 15.8 |  |  |  |  |  |  |  | IC50 [1, 6]: 11.2 µM
Cc1c(Cc2ccc3ccccc3n2)c2cc(F)ccc2n1CC(=O)O [NCGC00386286-04] | YES | -2.1 | -124 | -116 | -2.1 | 44.7 | -2.1 | -123 | 44.7 |  |  |  |  |  |  |  | IC50 [1, 6]: 50.1 µM
CCN(CC)CCN(Cc1ccc(-c2ccc(C(F)(F)F)cc2)cc1)C(=O)Cn1c(SCc2ccc(F)cc2)nc(=O)c2c1CCC2 [NCGC00386337-05] |  |  |  | -54 | -2.2 | 56.2 |  |  |  | -65 | YES | -1.2 | 35.5 | -46 | -2.2 | 31.6 | 
COc1ccc2[nH]c([S+]([O-])Cc3ncc(C)c(OC)c3C)nc2n1 (centres unmarked) [NCGC00386399-04] | YES | -1.2 | -44 |  |  |  | -2.2 | -72 | 44.7 |  |  |  |  |  |  |  | IC50 [1, 6]: 25.1 µM
O=C(O)CSc1cc(NS(=O)(=O)c2ccc(Br)cc2)c2ccccc2c1O [NCGC00386409-01] |  |  |  | -87 | -2.2 | 44.7 |  |  |  | -92 | YES | -1.1 | 12.6 | -60 | -1.2 | 5 | 
N#Cc1ccc(Nc2nc(-c3ccc(O)cc3O)cs2)cc1C(F)(F)F [NCGC00386816-01] |  |  |  | -71 | -2.2 | 35.5 |  |  |  | -72 | YES | -2.2 | 50.1 | -65 | -2.2 | 28.2 | 
CCC(C)Cn1c(O)cc2nn(-c3nc4ccccc4s3)c(=O)c-2c1C.O=C(O)C(F)(F)F (centres unmarked) [NCGC00386995-01] | YES | -1.4 | -40 |  |  |  | -1.2 | -51 | 11.2 |  |  |  |  |  |  |  | IC50 [1, 6]: 35.5 µM
O=c1nc(-c2ccccn2)sc2ccccc12 [NCGC00387147-01] |  |  |  | -72 | -1.2 | 28.2 |  |  |  | -28 | YES | -2.4 | 44.7 | 0 | 4 |  | Confirm? (counterscreen) ([2]; counterscreen, YES/NO): YES
CC[C@@H](c1ccc(F)c(F)c1)n1c(C(=O)OC)c(-c2ccno2)[nH]c1=S [NCGC00387465-01] |  | 4 | -22 | -79 | -2.2 | 79.4 | 4 | 0 |  |  |  |  |  |  |  |  | 
CNc1ccc([N+](=O)[O-])c(Nc2ccc3[nH]ncc3c2)n1 [NCGC00387499-01] |  |  |  | -48 | -1.2 | 3.5 |  |  |  | -53 | YES | -1.2 | 2.8 | -36 | -1.2 | 4 | 
C=C1[C@@H](C)[C@H]2[C@H](Cc3ccccc3)NC(=O)[C@]23OC(=O)/C=C/C(=O)CCC[C@@H](C)C/C=C/[C@H]3[C@@H]1O [NCGC00388356-01] |  |  |  | -73 | -1.2 | 20 |  |  |  | -94 | YES | -1.1 | 10 | -57 | -1.2 | 5.6 | 
O=C1NC(c2ccc(N3CCOCC3)cc2)(c2ccsc2)CC(O)=C1Sc1ccccc1Cl (centres unmarked) [NCGC00388532-05] |  |  |  |  |  |  |  |  |  | -53 | YES | -2.4 | 44.7 | -48 | -2.2 | 31.6 | Efficacy (%) [1, 15]: -27%; Curve Class [1, 16]: -1.4; IC50 [1, 17]: 0.9 µM
Oc1ccc2c(-c3c(-c4ccccn4)nn4c3CCC4)ccnc2c1 [NCGC00408881-01] |  |  |  | -36 | -1.2 | 28.2 |  |  |  | -42 | YES | -2.2 | 39.8 | -32 | -2.2 | 50.1 | 
